Active and inactive are the calls of the source. The calls are words filed in the database; no cut-off is given here.
How the values were obtained:
[1] = Cytotoxicity against C57BL/6 mouse spleen mononuclear cells assessed as cell viability at 0.5 to 1 uM measured after 48 hrs by CCK-8 assay; format: cell-based; settings: mononuclear cell line, dose 0.5-1 µM
CD4+ve Th = experiment: Immunosuppressive activity in C57BL/6 mouse SMNCs-derived CD4+ T cells assessed as inhibition of concanavalinA-stimulated cell proliferation at 1 uM measured after 5 to 7 days by CFSE staining based FACScan flowcytometry; format: functional; settings: time 5-7 day

| SMILES | Activity [1] | Activity (CD4+ve Th) |
| --- | --- | --- |
| Cc1ccc(O)cc1CC[C@]1(O)C(=O)CC[C@]2(C)[C@@H]([C@H](C)/C=C/[C@@H](C)C(C)C)CC[C@H]21 | Non-Toxic | Active |
| Cc1ccc(O)cc1CC[C@@H]1[C@H](O)CC[C@]2(C)[C@@H]([C@H](C)CCCC(C)C)CC[C@@H]12 [ASTROGORGIADIOL] | Non-Toxic | Active |
| Cc1ccc(O)cc1CC[C@]1(O)[C@H](O)CC[C@]2(C)[C@@H]([C@H](C)/C=C/[C@@H](C)C(C)C)CC[C@H]21 | Non-Toxic | Active |
| Cc1ccc(O)cc1CC[C@@H]1[C@H](O)CC[C@]2(C)[C@@H]([C@H](C)CCCC(C)C)[C@@H](O)C[C@@H]12 [CALICOFEROL B] | Non-Toxic | Active |
| CC(C)=CCC[C@@H](C)[C@H]1CC[C@H]2[C@H](CCc3cc(O)ccc3C)[C@H](O)CC[C@]12C [CALICOFEROL G] | Non-Toxic | Active |
| Cc1ccc(O)cc1CC[C@@H]1[C@H](O)CC[C@]2(C)[C@@H]([C@H](C)/C=C/CC(C)C)CC[C@@H]12 | Non-Toxic | Active |
| C=C(CC[C@@H](C)[C@H]1CC[C@H]2[C@H](CCc3cc(O)ccc3C)[C@H](O)CC[C@]12C)C(C)C [CALICOFEROL C] | Non-Toxic | Active |
| Cc1ccc(O)cc1CC[C@]1(O)[C@H](O)CC[C@]2(C)[C@@H]([C@H](C)CC[C@H](C)C(C)C)CC[C@H]21 | Non-Toxic | Active |
| C=C(CC[C@@H](C)[C@H]1CC[C@@H]2[C@]1(C)CC[C@@H](O)[C@@]2(O)CCc1cc(O)ccc1C)C(C)C | Non-Toxic | Active |
| Cc1ccc(O)cc1CC[C@]1(O)C(=O)CC[C@]2(C)[C@@H]([C@H](C)/C=C/CC(C)C)CC[C@H]21 | Non-Toxic | Active |
| Cc1ccc(O)cc1CC[C@]1(O)C(=O)CC[C@]2(C)[C@@H]([C@H](C)/C=C/[C@@H](C)C(C)C)C[C@@H](O)[C@H]21 | Non-Toxic | inactive |
| Cc1ccc(O)cc1CC[C@]1(O)[C@H](O)CC[C@]2(C)[C@@H]([C@H](C)CC[C@@H](C)C(C)C)CC[C@H]21 | Non-Toxic | Active |
| C/C=C(/CC[C@@H](C)[C@H]1CC[C@@H]2[C@]1(C)CC[C@@H](O)[C@@]2(O)CCc1cc(O)ccc1C)C(C)C | Non-Toxic | inactive |
| Cc1ccc(O)cc1CC[C@]1(O)[C@H](O)CC[C@]2(C)[C@@H]([C@H](C)CCCC(C)C)CC[C@H]21 | Non-Toxic | Active |
| Cc1ccc(O)cc1CC[C@]1(O)[C@H](O)CC[C@]2(C)[C@@H]([C@H](C)/C=C/CC(C)C)CC[C@H]21 | Non-Toxic | Active |
| Cc1ccc(O)cc1CC[C@@H]1[C@H](O)CC[C@]2(C)[C@@H]([C@H](C)/C=C/[C@@H](C)C(C)C)CC[C@@H]12 | Non-Toxic | Active |

Reference: ChEMBL document CHEMBL4834442, “Immunosuppressive 9,10-Secosteroids from the Gorgonian Verrucella umbraculum Collected in the South China Sea” (J Nat Prod, 2021)
